In PubChem BioAssay AID1259407 (Chemical Carcinogenesis Research Information System (CCRIS), 2018):
The source made the active and inactive calls. No rule for the calls is given here.

Tested on: CCRIS mutagenicity, Ames/micronucleus/aberration tests
Assay: CCRIS mutagenicity studies
[1] = Test System: AMES SALMONELLA TYPHIMURIUM, Strain/Indicator: TA98, Metabolic Activation: NONE, Method: PREINCUBATION
[2] = Test System: AMES SALMONELLA TYPHIMURIUM, Strain/Indicator: TA100, Metabolic Activation: NONE, Method: PREINCUBATION
[3] = Test System: AMES SALMONELLA TYPHIMURIUM, Strain/Indicator: TA1535, Metabolic Activation: NONE, Method: PREINCUBATION
[4] = Test System: AMES SALMONELLA TYPHIMURIUM, Strain/Indicator: TA100, Metabolic Activation: NONE, Method: STANDARD PLATE

Measured: mutagenic call

CCCCCCCCCCCC[S][Sn]([CH2]CCC)([CH2]CCC)[S]CCCCCCCCCCCC
inactive: Test System: AMES SALMONELLA TYPHIMURIUM, Strain/Indicator: TA97, Metabolic Activation: HAMSTER, LIVER, S-9, AROCLOR 1254 (10%), Method: PREINCUBATION inactive; negative | Test System: AMES SALMONELLA TYPHIMURIUM, Strain/Indicator: TA97, Metabolic Activation: HAMSTER, LIVER, S-9, AROCLOR 1254 (30%), Method: PREINCUBATION inactive; negative | Test System: AMES SALMONELLA TYPHIMURIUM, Strain/Indicator: TA97, Metabolic Activation: NONE, Method: PREINCUBATION inactive; negative | Test System: AMES SALMONELLA TYPHIMURIUM, Strain/Indicator: TA97, Metabolic Activation: RAT, LIVER, S-9, AROCLOR 1254 (10%), Method: PREINCUBATION inactive; negative | Test System: AMES SALMONELLA TYPHIMURIUM, Strain/Indicator: TA97, Metabolic Activation: RAT, LIVER, S-9, AROCLOR 1254 (30%), Method: PREINCUBATION inactive; negative | Test System: AMES SALMONELLA TYPHIMURIUM, Strain/Indicator: TA98, Metabolic Activation: HAMSTER, LIVER, S-9, AROCLOR 1254 (10%), Method: PREINCUBATION inactive; negative | Test System: AMES SALMONELLA TYPHIMURIUM, Strain/Indicator: TA98, Metabolic Activation: HAMSTER, LIVER, S-9, AROCLOR 1254 (30%), Method: PREINCUBATION inactive; negative | [1] inactive; negative | Test System: AMES SALMONELLA TYPHIMURIUM, Strain/Indicator: TA98, Metabolic Activation: RAT, LIVER, S-9, AROCLOR 1254 (10%), Method: PREINCUBATION inactive; negative | Test System: AMES SALMONELLA TYPHIMURIUM, Strain/Indicator: TA98, Metabolic Activation: RAT, LIVER, S-9, AROCLOR 1254 (30%), Method: PREINCUBATION inactive; negative | Test System: AMES SALMONELLA TYPHIMURIUM, Strain/Indicator: TA100, Metabolic Activation: HAMSTER, LIVER, S-9, AROCLOR 1254 (10%), Method: PREINCUBATION inactive; negative | Test System: AMES SALMONELLA TYPHIMURIUM, Strain/Indicator: TA100, Metabolic Activation: HAMSTER, LIVER, S-9, AROCLOR 1254 (30%), Method: PREINCUBATION inactive; negative | [2] inactive; negative | Test System: AMES SALMONELLA TYPHIMURIUM, Strain/Indicator: TA100, Metabolic Activation: RAT, LIVER, S-9, AROCLOR 1254 (10%), Method: PREINCUBATION inactive; negative | Test System: AMES SALMONELLA TYPHIMURIUM, Strain/Indicator: TA100, Metabolic Activation: RAT, LIVER, S-9, AROCLOR 1254 (30%), Method: PREINCUBATION inactive; negative | Test System: AMES SALMONELLA TYPHIMURIUM, Strain/Indicator: TA1535, Metabolic Activation: HAMSTER, LIVER, S-9, AROCLOR 1254 (10%), Method: PREINCUBATION inactive; negative | Test System: AMES SALMONELLA TYPHIMURIUM, Strain/Indicator: TA1535, Metabolic Activation: HAMSTER, LIVER, S-9, AROCLOR 1254 (30%), Method: PREINCUBATION inactive; negative | [3] inactive; negative | Test System: AMES SALMONELLA TYPHIMURIUM, Strain/Indicator: TA1535, Metabolic Activation: RAT, LIVER, S-9, AROCLOR 1254 (10%), Method: PREINCUBATION inactive; negative | Test System: AMES SALMONELLA TYPHIMURIUM, Strain/Indicator: TA1535, Metabolic Activation: RAT, LIVER, S-9, AROCLOR 1254 (30%), Method: PREINCUBATION inactive; negative

N.N.O=C([O-])C1(C(=O)[O-])CCC1.[Pt+4]
active: Test System: AMES SALMONELLA TYPHIMURIUM, Strain/Indicator: TA102, Metabolic Activation: NONE, Method: STANDARD PLATE active; positive | Test System: AMES SALMONELLA TYPHIMURIUM, Strain/Indicator: TA102, Metabolic Activation: RAT, LIVER, S-9, AROCLOR 1254, Method: STANDARD PLATE active; positive | Test System: CHINESE HAMSTER, Strain/Indicator: V-79/6-THIOGUANINE (HGPRT), Metabolic Activation: NONE, Method: STANDARD PLATE active; positive
inactive: [1] inactive; negative | Test System: AMES SALMONELLA TYPHIMURIUM, Strain/Indicator: TA98, Metabolic Activation: NONE, Method: STANDARD PLATE inactive; negative | Test System: AMES SALMONELLA TYPHIMURIUM, Strain/Indicator: TA98, Metabolic Activation: RAT, LIVER, S-9, AROCLOR 1254, Method: STANDARD PLATE inactive; negative | Test System: AMES SALMONELLA TYPHIMURIUM, Strain/Indicator: TA98, Metabolic Activation: RAT, LIVER, S-9, PHENOBARBITAL AND 5,6-BENZOFLAVONE, Method: PREINCUBATION inactive; negative | [2] inactive; negative | [4] inactive; negative | Test System: AMES SALMONELLA TYPHIMURIUM, Strain/Indicator: TA100, Metabolic Activation: RAT, LIVER, S-9, AROCLOR 1254, Method: STANDARD PLATE inactive; negative | Test System: AMES SALMONELLA TYPHIMURIUM, Strain/Indicator: TA100, Metabolic Activation: RAT, LIVER, S-9, PHENOBARBITAL AND 5,6-BENZOFLAVONE, Method: PREINCUBATION inactive; negative | [3] inactive; negative | Test System: AMES SALMONELLA TYPHIMURIUM, Strain/Indicator: TA1535, Metabolic Activation: RAT, LIVER, S-9, PHENOBARBITAL AND 5,6-BENZOFLAVONE, Method: PREINCUBATION inactive; negative | Test System: AMES SALMONELLA TYPHIMURIUM, Strain/Indicator: TA1537, Metabolic Activation: NONE, Method: PREINCUBATION inactive; negative | Test System: AMES SALMONELLA TYPHIMURIUM, Strain/Indicator: TA1537, Metabolic Activation: RAT, LIVER, S-9, PHENOBARBITAL AND 5,6-BENZOFLAVONE, Method: PREINCUBATION inactive; negative | Test System: E.COLI, Strain/Indicator: WP2 UVRA, Metabolic Activation: NONE, Method: PREINCUBATION inactive; negative | Test System: E.COLI, Strain/Indicator: WP2 UVRA, Metabolic Activation: RAT, LIVER, S-9, PHENOBARBITAL AND 5,6-BENZOFLAVONE, Method: PREINCUBATION inactive; negative

C=CCO
inactive: Test System: Mouse lymphoma, Strain/Indicator: L5178Y (tk+/tk-), Metabolic Activation: Rat, Liver, S-9, Aroclor 1254, Method: Suspension/plate inactive; negative
active: End Point: In vitro chromosomal aberrations, Test System: Chinese hamster lung (CHL/IU) cells, Metabolic Activation: Rat, Liver, S9, Phenobarbital and 5,6-benzoflavone active; positive (structural changes and ploidy). toxicity at 0.008 mg/ml. | Test System: CHINESE HAMSTER V-79, Strain/Indicator: V-79/6-THIOGUANINE, Metabolic Activation: NONE active; positive | Test System: MOUSE LYMPHOMA, Strain/Indicator: L5178Y (TK+/TK-), Metabolic Activation: NONE, Method: SUSPENSION/PLATE active; positive. reevaluation of results: positive

CC(=O)Oc1ccc(CCl)cc1
active: [4] active; positive
